Measured values reported in patent EP4817611A1, “PHARMACEUTICAL COMPOSITION” (EA Pharma Co., Ltd., priority 2023, dated 2025).

Assays:
[1] = recorded in the Chemical Book; cited from earlier work
[2] = One-month stability test in sealed glass vial under three storage conditions; decomposition product 1 by HPLC; assay type: physicochemical; settings: Compound (2) HCl 62.5 mg + acidic substance 62.5 mg
Description: When the hydrochloride of the compound represented by the formula (2) (hereinafter referred to as "Compound (2) HCl") is decomposed, the following decomposition products 1 and 2 are produced. [drawing 9]
The amount of the decomposition product 1 produced was measured over time by HPLC to evaluate the stability of the pharmaceutical composition. The HPLC analysis conditions are as follows. When airtight conditions were employed in the stability test, aluminum packaging was used.
• Detector: UV absorption photometer (measurement wavelength: 256 nm) • Column: InertSustain AQ-C18 HP 3 µm, 3.0 × 150 mm (reverse-phase C18 column) • Column temperature: a constant temperature around 25°C • Mobile phase A: 50 mmol/L ammonium formate buffer solution (pH: 4) • Mobile phase B: 50 mmol/L ammonium formate buffer solution (pH: 4) : acetonitrile = 1:4 • Flow rate: 1.0 ml/min
• Time: 0 → 20 • Mobile phase A (%): 95 → 0 • Mobile phase B (%): 5 → 100
The formulation in Table 5-1 (the types of acidic substances are listed in Table 5-2) was mixed in a mortar to prepare a pharmaceutical composition, which was then sealed in a glass vial, and a one-month stability test was performed under three storage conditions (airtight conditions at 4°C, airtight conditions at 60°C, and open conditions at 60°C). As a reference example, a stability test was also performed on the active ingredient alone (without an acidic substance).

| SMILES | pKa [1] | Content of decomposition product 1 (%) (4°C, airtight) ([2]; 4°C, airtight, glass vial) | Content of decomposition product 1 (%) (60°C, airtight) ([2]; 60°C, airtight, glass vial) | Content of decomposition product 1 (%) (60°C, open, 75% RH) ([2]; 60°C, open, 75% RH) |
| --- | --- | --- | --- | --- |
| N[C@@H](CC(=O)O)C(=O)O [aspartic acid] | 1.99 | – | – | – |
| CC(C)(Cc1ccc(C(=O)Oc2ccc(C(=N)N)cc2F)s1)C(=O)O [Reference example] | – | 0.03 | 0.05 | 0.10 |
